From patent publication US6989375B2, “Enhanced expression of transgenes” (priority 1996, dated 2006)

Assays:
H1299 cells [1] = test: In situ TUNEL assay for apoptosis; format: cell-based, human; conditions: CDDP = prior CDDP treatment, Ad/CMV/p53 = not exposed to CDDP
Method: CDDP-treated or control H1299 cells were fixed in 50% acetone/ethanol for 20 minutes at −20° C. 12 hrs and 24 hrs after transfection with Adv/CMV/p53 (MOI=5). In situ TdT (terminal deoxynucleotidyl transferase)-mediated dUTP-biotin nick end-labeling (TUNEL) assay was performed according to the procedure described elsewhere (Gavrieli et al., 1992). H1299 cells used as positive controls were treated with DNAse I (Gibco BRL, Gaithersburg, Md.), for 1 hr at 37° C. (50 μg/ml in 10 mM Tris-HCI pH=7.5; 140 mM sodium cacodylate, 4 mM MgCl2, 10 mM dithiothreitol).

H460 cells = test: Cell growth after 24-hour incubation with CDDP; format: cell-based, human
[2] = system: p53 protein in H1299 cells; test: Western blot analysis of p53 protein expression with densitometry; format: cell-based, human; conditions: CDDP = prior CDDP exposure, Adv/CMV/p53 = without prior CDDP
Method: H1299 cells were infected with Ad/CMV/p53 (MOI=1) 48 hrs after CDDP exposure. Cells were then harvested at 6, 12, 24, 36 and 48 hrs after transfection for Western blot analysis of p53 protein expression, as described elsewhere (Diller et al., 1990). Unexposed cells similarly transfected with Ad/CMV/p53 were used as controls. The human NSCLC cell line H322 which overexpresses mutant p53 protein was used as a positive control. Relative quantities of exogenous p53 protein were determined by densitometer (Molecular Dynamics, Sunnyvale, Calif.).

H1299 cells [3] = test: Cell growth after 24-hour incubation with CDDP; format: cell-based, human
[4] = system: CDDP-resistant ovarian carcinoma cells (2008); conditions: CDDP four to six weeks prior (in vitro) or once one week prior (in vivo); cited from earlier work
[5] = CDDP at 1 and 4 μg/ml for 24 hours, cells viable by trypan blue exclusion
[6] = CDDP concentrations lower than 0.25 μg/ml

With `N.N.[Cl][Pt][Cl]` [CDDP, cis-dichlorodimminocisplatin] the “Apoptosis (TUNEL-positive cells)” value (H1299 cells [1]; 12 hrs after Ad/CMV/p53 transfection (MOI=5)) was “much higher frequency than in untreated cells”, the “Apoptosis (TUNEL-positive cells)” value (H1299 cells [1]; 24 hrs after Ad/CMV/p53 transfection (MOI=5)) was “almost all CDDP-treated cells stained positive for DNA fragmentation” and the “Cell growth, initial response” value (H460 cells; [5]) was “significant depression of growth to complete inhibition of proliferation”. For the same compound, the “Cell growth compared to control cell populations” value (H460 cells; [6]) was “remained unchanged”, the “Relative level of p53 protein (normalized for β-actin)” value ([2]; 12 hrs after Adv/CMV/p53 transfection (MOI=1)) was 0.73 and the “Relative level of p53 protein (normalized for β-actin)” value ([2]; 24 hrs after Adv/CMV/p53 transfection (MOI=1)) was 1.39. The “Relative level of p53 protein (normalized for β-actin)” value ([2]; 36 hrs after Adv/CMV/p53 transfection (MOI=1)) was 1.49, the “Relative level of p53 protein (normalized for β-actin)” value ([2]; 48 hrs after Adv/CMV/p53 transfection (MOI=1)) was 1.20 and the “Cell growth, initial response” value (H1299 cells [3]; [5]) was “significant depression of growth to complete inhibition of proliferation”. For the same compound, the “Cell growth compared to control cell populations” value (H1299 cells [3]; [6]) was “remained unchanged” and the “Gene transduction after CDDP exposure prior to liposome-mediated gene transfer” value [4] was “enhanced gene transduction”.
